Source: PubChem BioAssay (NCI)
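Dose response: 5 concentrations. Exposure: 48 h. Format: 96-well plates. Endpoint: linear interpolation; highest concentration if not reached. At the TGI there is no net growth.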

How the values were obtained:
Experiment in all cases: growth of human tumour cells (NCI), 48 h
MDA-MB-231 breast = tested on: MDA-MB-231 breast
MDA-N = tested on: MDA-N
HOP-62 NSCLC = tested on: HOP-62 NSCLC
MOLT-4 leukemia = tested on: MOLT-4 leukemia
786-0 renal = tested on: 786-0 renal
SF-295 CNS = tested on: SF-295 CNS
ACHN renal = tested on: ACHN renal
DU-145 prostate = tested on: DU-145 prostate
UACC-62 melanoma = tested on: UACC-62 melanoma
NCI-H23 lung = tested on: NCI-H23 lung
K-562 leukemia = tested on: K-562 leukemia
CAKI-1 renal = tested on: CAKI-1 renal
COLO 205 colon = tested on: COLO 205 colon
MCF7 breast = tested on: MCF7 breast
SNB-19 CNS = tested on: SNB-19 CNS
NCI-H460 lung = tested on: NCI-H460 lung
OVCAR-4 ovarian = tested on: OVCAR-4 ovarian
HCT-15 colon = tested on: HCT-15 colon
SF-539 CNS = tested on: SF-539 CNS
SF-268 CNS = tested on: SF-268 CNS
MDA-MB-435 = tested on: MDA-MB-435
SW-620 colon = tested on: SW-620 colon
HS 578T breast = tested on: HS 578T breast
T-47D breast = tested on: T-47D breast
SK-MEL-2 melanoma = tested on: SK-MEL-2 melanoma
A498 renal = tested on: A498 renal
CCRF-CEM leukemia = tested on: CCRF-CEM leukemia
LOX IMVI melanoma = tested on: LOX IMVI melanoma
SK-MEL-5 melanoma = tested on: SK-MEL-5 melanoma
M14 melanoma = tested on: M14 melanoma
HT29 colon = tested on: HT29 colon
BT-549 breast = tested on: BT-549 breast
A549 NSCLC = tested on: A549 NSCLC
SNB-75 CNS = tested on: SNB-75 CNS
OVCAR-5 ovarian = tested on: OVCAR-5 ovarian
PC-3 prostate = tested on: PC-3 prostate
OVCAR-8 ovarian = tested on: OVCAR-8 ovarian
MALME-3M melanoma = tested on: MALME-3M melanoma
UO-31 renal = tested on: UO-31 renal
RPMI-8226 leukemia = tested on: RPMI-8226 leukemia
NCI/ADR-RES ovarian = tested on: NCI/ADR-RES ovarian
IGROV1 ovarian = tested on: IGROV1 ovarian
UACC-257 melanoma = tested on: UACC-257 melanoma
SK-MEL-28 melanoma = tested on: SK-MEL-28 melanoma
NCI-H522 lung = tested on: NCI-H522 lung
OVCAR-3 ovarian = tested on: OVCAR-3 ovarian
SK-OV-3 ovarian = tested on: SK-OV-3 ovarian
NCI-H226 lung = tested on: NCI-H226 lung
EKVX NSCLC = tested on: EKVX NSCLC
HCC-2998 colon = tested on: HCC-2998 colon
RXF 393 renal = tested on: RXF 393 renal
TK-10 renal = tested on: TK-10 renal
SN12C renal = tested on: SN12C renal
U251 CNS = tested on: U251 CNS
KM12 colon = tested on: KM12 colon
HCT-116 colon = tested on: HCT-116 colon
HL-60(TB) leukemia = tested on: HL-60(TB) leukemia
HOP-92 NSCLC = tested on: HOP-92 NSCLC

Measured: TGI

CCOC(=O)C(CCSC)(CCSC)C(=O)OCC
49.1 µM: UACC-62 melanoma
72.2 µM: SK-OV-3 ovarian
not listed: HL-60(TB) leukemia | HOP-92 NSCLC
> 100 µM: all other assays above

Oc1ccccc1CNCc1ccccc1O
36.7 µM: HCC-2998 colon
> 100 µM: all other assays above
